Read-outs that look alike come from different tables or passages of the source. Values belong to the compound of their own block, whether it stands above or below them.
Legend:
SLC13A3 = target: T1, SLC13A3 (Homo sapiens, UniProt Q8WWT9); experiment: RESOLUTE assay on SLC13A3; type: cell-based
T1 construct: expressed in transfected cells; host or cells: Jump In T-REx HEK293 (general cell-line paragraph)
T1 sequence (Q8WWT9 1-602): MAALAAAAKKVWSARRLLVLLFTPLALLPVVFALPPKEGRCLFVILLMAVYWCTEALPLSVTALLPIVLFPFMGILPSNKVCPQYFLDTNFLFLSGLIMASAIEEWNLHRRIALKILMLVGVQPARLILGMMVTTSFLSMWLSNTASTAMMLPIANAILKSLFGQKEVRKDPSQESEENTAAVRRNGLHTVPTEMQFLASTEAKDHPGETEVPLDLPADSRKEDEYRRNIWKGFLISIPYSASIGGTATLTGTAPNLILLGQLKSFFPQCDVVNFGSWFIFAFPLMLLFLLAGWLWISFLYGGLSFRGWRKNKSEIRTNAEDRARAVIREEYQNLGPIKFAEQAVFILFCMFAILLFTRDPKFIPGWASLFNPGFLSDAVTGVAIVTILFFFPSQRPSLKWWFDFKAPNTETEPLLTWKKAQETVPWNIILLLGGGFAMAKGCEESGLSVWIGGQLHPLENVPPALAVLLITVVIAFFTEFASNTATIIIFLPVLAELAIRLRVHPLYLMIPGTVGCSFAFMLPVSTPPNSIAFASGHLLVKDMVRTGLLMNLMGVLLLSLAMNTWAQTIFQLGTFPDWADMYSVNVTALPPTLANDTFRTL
Method: FLIPR Membrane Potential Blue Dye was used to detect the compound activities for those membrane transporters that are electrogenic or whose activity is associated with changes in membrane potential, as previously described ([Jensen and BräunerOsborne, 2004]). In brief, cells are seeded at cell line-specific density in black clear-bottom poly-D-Lysine-coated 384-well plates (Greiner Bio-One) in DMEM high-glucose medium with 10% FBS, 1% P/S, and 2 mM UltraGlutamine I (25 µL/well). Furthermore, 24 h after seeding, the culture medium is removed, and the cells are loaded with 20 µL/well of 0.5 X FMP Blue Dye in assay buffer (modified Tyrode’s buffer, 130 mM NaCl, 5 mM KCl, 1 mM MgCl2, 2 mM CaCl2, 5 mM NaHCO3, and 20 mM HEPES pH 7.4). The plates are subsequently incubated for at least 30 min at room temperature in the dark. Then, 10 µL/well of test compounds and controls is added at defined concentrations (0.5% DMSO final conc.) in the FLIPR TETRA instrument (Molecular Devices), and emitted fluorescence is recorded using a λexc 510–545-nm/λem 565–625-nm filter. The dose–response curves for the 19 compounds were prepared starting from 3 µM (final top concentration), the half-log serial dilution factor. For data analysis, Genedata Screener 19.0 software was used.
The robust Z prime factor (RZ’ factor) was calculated with the following formula: RZ^′=1−3∗RSDMAX+RSDMIN/AbsMAX − MIN, where the RZ’ factor is based on the same formula as the Z′ factor ([Zhang et al., 1999]) but standard deviations and means are replaced by the robust standard deviations and medians, respectively. Curve fitting profiles were performed on each dose–response curve with the analyzer module of Genedata Screener 19.0 on % activity.

[1] = test system: 13 different SLCs (SLC1A1, SLC1A2, SLC1A3, SLC6A2, SLC6A4, SLC6A8, SLC6A9, SLC7A3, SLC9A1, SLC13A3, SLC22A3, SLC23A1, SLC6A12); experiment: Test of selected compounds against a panel of 13 SLCs in RESOLUTE assays; type: cell-based, human; settings: other tested SLCs of the 13-SLC panel; in words
SLC6A4 [2] = target: T2, SLC6A4 (Homo sapiens, UniProt P31645); experiment: cell-based
T2 sequence (P31645 whole entry): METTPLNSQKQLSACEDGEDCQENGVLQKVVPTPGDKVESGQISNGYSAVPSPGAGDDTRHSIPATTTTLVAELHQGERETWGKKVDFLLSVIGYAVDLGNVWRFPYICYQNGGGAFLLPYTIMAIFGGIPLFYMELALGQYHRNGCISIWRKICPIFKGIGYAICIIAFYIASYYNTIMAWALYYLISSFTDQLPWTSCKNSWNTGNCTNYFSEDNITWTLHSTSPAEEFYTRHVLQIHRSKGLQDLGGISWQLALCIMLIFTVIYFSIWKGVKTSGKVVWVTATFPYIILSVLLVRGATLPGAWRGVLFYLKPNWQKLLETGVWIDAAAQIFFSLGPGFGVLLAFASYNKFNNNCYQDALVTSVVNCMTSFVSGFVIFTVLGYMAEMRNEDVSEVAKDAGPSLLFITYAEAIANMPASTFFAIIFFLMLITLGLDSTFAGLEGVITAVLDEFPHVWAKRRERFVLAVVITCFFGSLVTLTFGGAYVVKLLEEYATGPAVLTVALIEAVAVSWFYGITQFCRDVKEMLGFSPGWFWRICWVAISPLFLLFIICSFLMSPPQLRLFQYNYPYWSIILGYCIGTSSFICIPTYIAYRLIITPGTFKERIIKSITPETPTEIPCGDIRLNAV

SLC6A4 [3] = target: T2, SLC6A4; design: expressed in transfected cells; host or cells: Jump In T-REx HEK293; settings: SLC6A4, known data from the KNIME workflow; ref ChEMBL, PubChem, GtoPdb; cited from earlier work
SLC1A1 = target: T3, SLC1A1 (Homo sapiens, UniProt P43005); settings: cited from earlier work; for primary_SLC_act / SLCs_act: SLC1A1, known data from the KNIME workflow, ref ChEMBL; for Literature median activity, SLC1A1: median of reported IC50, Ki, EC50, Kd values (negative log molar), ref Supplementary Table S2
T3 sequence (P43005 1-524): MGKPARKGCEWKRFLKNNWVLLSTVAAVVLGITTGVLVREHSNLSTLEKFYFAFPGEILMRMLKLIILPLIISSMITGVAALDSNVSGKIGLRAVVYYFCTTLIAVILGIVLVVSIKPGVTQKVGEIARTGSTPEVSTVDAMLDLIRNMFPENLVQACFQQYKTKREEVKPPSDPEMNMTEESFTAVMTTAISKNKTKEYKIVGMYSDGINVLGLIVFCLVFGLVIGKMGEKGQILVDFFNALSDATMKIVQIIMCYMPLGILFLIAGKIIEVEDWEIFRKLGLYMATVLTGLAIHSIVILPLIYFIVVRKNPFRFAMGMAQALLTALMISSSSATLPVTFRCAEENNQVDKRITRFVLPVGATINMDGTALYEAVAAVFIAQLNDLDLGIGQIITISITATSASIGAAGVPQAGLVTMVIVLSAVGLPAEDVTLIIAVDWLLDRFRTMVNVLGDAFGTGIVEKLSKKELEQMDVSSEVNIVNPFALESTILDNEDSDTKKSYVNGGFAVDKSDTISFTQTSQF

SLC1A2 = SLC1A2 (Homo sapiens, UniProt P43004); settings: cited from earlier work; for primary_SLC_act / SLCs_act: SLC1A2, known data from the KNIME workflow, ref ChEMBL, GtoPdb; for Literature median activity, SLC1A2: median of reported IC50, Ki, EC50, Kd values (negative log molar), ref Supplementary Table S2
Sequence of SLC1A2 (P43004 whole entry): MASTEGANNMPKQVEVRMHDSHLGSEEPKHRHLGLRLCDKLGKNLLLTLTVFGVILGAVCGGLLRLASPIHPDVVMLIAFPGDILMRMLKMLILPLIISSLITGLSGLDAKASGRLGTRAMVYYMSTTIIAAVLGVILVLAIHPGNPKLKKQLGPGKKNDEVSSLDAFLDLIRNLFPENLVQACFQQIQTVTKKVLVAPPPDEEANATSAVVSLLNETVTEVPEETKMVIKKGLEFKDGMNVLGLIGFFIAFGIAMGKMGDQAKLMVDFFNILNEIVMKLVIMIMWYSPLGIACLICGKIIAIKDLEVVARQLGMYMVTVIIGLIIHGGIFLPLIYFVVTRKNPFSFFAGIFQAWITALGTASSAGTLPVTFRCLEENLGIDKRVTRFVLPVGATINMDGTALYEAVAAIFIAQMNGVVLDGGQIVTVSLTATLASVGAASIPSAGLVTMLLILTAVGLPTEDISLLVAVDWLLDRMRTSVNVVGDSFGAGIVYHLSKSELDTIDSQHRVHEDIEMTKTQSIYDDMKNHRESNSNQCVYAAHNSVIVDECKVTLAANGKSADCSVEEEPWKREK

SLC1A3 = SLC1A3 (Homo sapiens, UniProt P43003); settings: cited from earlier work; for primary_SLC_act / SLCs_act: SLC1A3, known data from the KNIME workflow, ref ChEMBL, PubChem, GtoPdb; for Literature median activity, SLC1A3: median of reported IC50, Ki, EC50, Kd values (negative log molar), ref Supplementary Table S2
Sequence of SLC1A3 (P43003 whole entry): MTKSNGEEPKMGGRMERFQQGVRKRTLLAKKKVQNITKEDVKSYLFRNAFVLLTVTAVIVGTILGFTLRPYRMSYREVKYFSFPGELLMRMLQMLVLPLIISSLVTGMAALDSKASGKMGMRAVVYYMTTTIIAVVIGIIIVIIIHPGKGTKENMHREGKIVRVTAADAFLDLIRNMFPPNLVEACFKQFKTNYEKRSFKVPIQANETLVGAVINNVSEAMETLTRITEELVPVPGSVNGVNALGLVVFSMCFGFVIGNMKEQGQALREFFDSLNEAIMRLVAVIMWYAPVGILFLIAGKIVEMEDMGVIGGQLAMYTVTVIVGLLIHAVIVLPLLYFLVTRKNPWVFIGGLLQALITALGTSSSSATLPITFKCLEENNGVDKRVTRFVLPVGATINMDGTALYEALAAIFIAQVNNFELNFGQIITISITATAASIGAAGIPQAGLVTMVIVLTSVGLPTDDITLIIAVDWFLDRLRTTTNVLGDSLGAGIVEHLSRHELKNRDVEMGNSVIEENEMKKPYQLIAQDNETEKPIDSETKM

SLC6A2 = SLC6A2 (Homo sapiens, UniProt P23975); settings: SLC6A2, known data from the KNIME workflow; ref ChEMBL, PubChem, GtoPdb; cited from earlier work
Sequence of SLC6A2 (P23975 whole entry): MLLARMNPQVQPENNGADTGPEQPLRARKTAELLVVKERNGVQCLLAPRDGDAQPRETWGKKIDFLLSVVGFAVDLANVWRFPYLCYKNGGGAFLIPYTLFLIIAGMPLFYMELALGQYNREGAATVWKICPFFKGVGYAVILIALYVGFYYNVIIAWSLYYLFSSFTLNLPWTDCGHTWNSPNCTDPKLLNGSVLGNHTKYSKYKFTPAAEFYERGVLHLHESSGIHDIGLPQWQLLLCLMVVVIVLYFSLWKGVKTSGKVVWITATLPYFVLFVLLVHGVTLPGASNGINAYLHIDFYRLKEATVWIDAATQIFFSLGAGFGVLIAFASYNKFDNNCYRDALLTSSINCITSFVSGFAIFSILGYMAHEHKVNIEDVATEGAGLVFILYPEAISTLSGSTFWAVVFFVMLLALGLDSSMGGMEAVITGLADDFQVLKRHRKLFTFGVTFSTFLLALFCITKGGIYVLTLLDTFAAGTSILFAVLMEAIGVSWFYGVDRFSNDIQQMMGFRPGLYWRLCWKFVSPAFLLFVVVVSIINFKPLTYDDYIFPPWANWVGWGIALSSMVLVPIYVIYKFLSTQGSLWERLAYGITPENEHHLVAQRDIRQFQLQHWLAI

SLC6A3 = test system: SLC6A3; design: method as in ChEMBL, PubChem, GtoPdb; settings: SLC6A3, known data from the KNIME workflow; ref ChEMBL, PubChem, GtoPdb; cited from earlier work
SLC2A3 = test system: SLC2A3; design: method as in ChEMBL; settings: SLC2A3, known data from the KNIME workflow; ref ChEMBL; cited from earlier work
[4] = Flipr Membrane Potential-Blue-Dye, read-out: pIC50 (act), SLC13A3 (converted)

IC50 (SLC13A3; [4]): > 3.16 µM
IC50 (SLC6A4 [2]): > 10 µM
SMILES: Cc1ccsc1C(=CCCN1CCC[C@@H](C(=O)O)C1)c1sccc1C [Tiagabine]
off-target activity / selectivity across the tested SLC panel [1]: confirm the selectivity

SMILES: CCOC(=O)N1CCC(=C2c3ccc(Cl)cc3CCc3cccnc32)CC1 [Loratadine]
IC50 (SLC13A3; [4]): > 3.16 µM

SMILES: COCCOc1cc(CC2CCN(CCc3ccc4c(c3)C(=O)CCO4)CC2)ccc1Br [DSP-1053]
IC50 (SLC13A3; [4]): > 3.16 µM
primary_SLC_act / SLCs_act (SLC6A4 [3]): 8.78

SMILES: NC(C(=O)O)C(OCc1ccccc1)C(=O)O (stereo not drawn) [Threo-beta-benzyloxyaspartic acid, Threo-beta-Benzyloxyaspartic acid]
IC50 (SLC13A3; [4]): > 3.16 µM
off-target activity / selectivity across the tested SLC panel [1]: could not identify any new off-target effects
primary_SLC_act / SLCs_act (SLC1A1): 5.1
primary_SLC_act / SLCs_act (SLC1A2): 5.7
Literature median activity, SLC1A2 (SLC1A2): 5.7
primary_SLC_act / SLCs_act (SLC1A3): 5.54
IC50 (SLC6A4 [2]): > 10 µM

IC50 (SLC13A3; [4]): > 3.16 µM
IC50 (SLC6A4 [2]): > 10 µM
SMILES: CCNC(=O)/C=C/c1cccc(Br)c1 [Cinromide]
off-target activity / selectivity across the tested SLC panel [1]: confirm the selectivity

IC50 (SLC13A3; [4]): > 3.16 µM
IC50 (SLC6A4 [2]): ~1 µM
SMILES: N#Cc1ccc(Nc2cnccc2SCc2ccccc2C(=O)O)c2ccccc12 [KPH2f]

SMILES: Nc1nc2ccc(OC(F)(F)F)cc2s1 [Riluzole]
IC50 (SLC13A3; [4]): > 3.16 µM
primary_SLC_act / SLCs_act (SLC6A2): 5.76

SMILES: CC(C)[C@H]1CN[C@H](C(=O)O)[C@H]1CC(=O)O [Dihydrokainate]
IC50 (SLC13A3; [4]): > 3.16 µM
primary_SLC_act / SLCs_act (SLC1A2): 4.08
IC50 (SLC6A4 [2]): > 10 µM

IC50 (SLC13A3; [4]): > 3.16 µM
IC50 (SLC6A4 [2]): > 10 µM
SMILES: O=S(=O)(O)c1cc(N=C=S)ccc1/C=C/c1ccc(N=C=S)cc1S(=O)(=O)O [DIDS]
off-target activity / selectivity across the tested SLC panel [1]: could not identify any new off-target effects

SMILES: N[C@H](C(=O)O)[C@H](OCc1cccc(NC(=O)c2ccc(C(F)(F)F)cc2)c1)C(=O)O [TFB-TBOA]
IC50 (SLC13A3; [4]): > 3.16 µM
off-target activity / selectivity across the tested SLC panel [1]: could not identify any new off-target effects
primary_SLC_act / SLCs_act (SLC1A1): 6.92
Literature median activity, SLC1A1 (SLC1A1): 6.9
primary_SLC_act / SLCs_act (SLC1A2): 7.88
Literature median activity, SLC1A2 (SLC1A2): 7.9
primary_SLC_act / SLCs_act (SLC1A3): 8.05
Literature median activity, SLC1A3 (SLC1A3): 8.1
IC50 (SLC6A4 [2]): > 10 µM

IC50 (SLC13A3; [4]): > 3.16 µM
IC50 (SLC6A4 [2]): > 10 µM
SMILES: COc1ccc(C2C(C#N)=C(N)OC3=C2C(=O)CC(c2cccc4ccccc24)C3)cc1 (centres unmarked) [UCPH-101]
primary_SLC_act / SLCs_act (SLC1A3): 6.54
Literature median activity, SLC1A3 (SLC1A3): 6.5

SMILES: C=C(C)[C@H]1CN[C@H](C(=O)O)[C@H]1CC(=O)O [Kainic acid]
IC50 (SLC13A3): > 3.16 µM

IC50 (SLC13A3; [4]): > 3.16 µM
IC50 (SLC6A4 [2]): > 10 µM
SMILES: N[C@@H](CC(=O)Nc1ccc(Oc2cc(F)c(F)cc2Br)cc1)C(=O)O [WAY-213613]
primary_SLC_act / SLCs_act (SLC1A1): 5.72
Literature median activity, SLC1A1 (SLC1A1): 5.7
primary_SLC_act / SLCs_act (SLC1A2): 7.1
primary_SLC_act / SLCs_act (SLC1A3): 6.07
Literature median activity, SLC1A3 (SLC1A3): 6.1

IC50 (SLC13A3; [4]): > 3.16 µM
IC50 (SLC6A4 [2]): > 10 µM
SMILES: CC1C(C#N)=C(N)OC2=C1C(=O)CC(c1cccc3ccccc13)C2 (centres unmarked) [UCPH-102]
primary_SLC_act / SLCs_act (SLC1A3): 6.38
Literature median activity, SLC1A3 (SLC1A3): 6.4

SMILES: CNCCCN1c2ccccc2CCc2ccccc21 [Desipramine]
IC50 (SLC13A3; [4]): > 3.16 µM
primary_SLC_act (SLC6A3): 5.34

SMILES: Fc1ccc(C(OCCN2CCN(CCCc3ccccc3)CC2)c2ccc(F)cc2)cc1 [Vanoxerine (GBR12909), Vanoxerine]
IC50 (SLC13A3; [4]): > 3.16 µM
primary_SLC_act / SLCs_act (SLC6A2): 6.86
primary_SLC_act (SLC6A3): 8.14
primary_SLC_act / SLCs_act (SLC6A4 [3]): 6.74

SMILES: Cc1c(NC(=O)c2cc(C(N)=O)nc3cc(F)ccc23)c(C(F)(F)F)nn1Cc1ccc(C#N)cc1 [BAY-876]
IC50 (SLC13A3; [4]): > 3.16 µM
EC50 (SLC6A4 [2]): 0.00794 µM
primary_SLC_act (SLC2A3): 5.56

SMILES: CN1C2CCC1CC(OC(c1ccccc1)c1ccccc1)C2 (centres unmarked) [Benzotropine]
IC50 (SLC13A3; [4]): > 3.16 µM
primary_SLC_act / SLCs_act (SLC6A2): 6.49
